Substitutions are numbered along the chain they refer to. Entries after “also recorded” stand apart in the source; their conditions may differ.
Assays:
[1] = target: T1, CocE (Rhodococcus sp., UniProt Q9L9D7); assay type: biochemical, Rhodococcus sp. MB 1
T1 construct: 6xHis (C); made in house; host or cells: E. coli BL-21 Gold (DE3), pET-22b(+)
T1 sequence (Q9L9D7 1-574): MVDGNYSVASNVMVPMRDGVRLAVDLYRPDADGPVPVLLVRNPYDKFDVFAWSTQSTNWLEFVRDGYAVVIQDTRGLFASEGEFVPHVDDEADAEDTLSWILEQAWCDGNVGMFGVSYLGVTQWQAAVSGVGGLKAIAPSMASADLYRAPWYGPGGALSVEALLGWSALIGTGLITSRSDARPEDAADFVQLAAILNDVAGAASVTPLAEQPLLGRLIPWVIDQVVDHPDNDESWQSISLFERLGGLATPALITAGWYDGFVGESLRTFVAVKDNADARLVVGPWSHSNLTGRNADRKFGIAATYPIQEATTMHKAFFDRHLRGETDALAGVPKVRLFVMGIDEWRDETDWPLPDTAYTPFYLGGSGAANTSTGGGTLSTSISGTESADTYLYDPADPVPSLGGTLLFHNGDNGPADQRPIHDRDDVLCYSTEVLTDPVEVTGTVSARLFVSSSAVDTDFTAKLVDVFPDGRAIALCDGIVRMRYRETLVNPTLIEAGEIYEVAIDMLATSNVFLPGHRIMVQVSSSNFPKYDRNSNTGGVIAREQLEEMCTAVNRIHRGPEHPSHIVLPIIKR
Description: Analysis of CocE action on cocaine cleavage is performed by utilizing the spectroscopic properties of cocaine, which maximally absorbs light at a 240 nm wavelength. CocE activity is measured by monitoring for a decrease in signal at A240, using various concentrations of cocaine, and determining the initial rate of the decrease. From these values the Vmax of the enzyme can be determined. By pre-incubating the enzyme at 37° C. for various times before monitoring for activity, the half life of CocE at 37° C. can be calculated.
The initial rates (of decay) were determined by following the change in the intrinsic absorbance of cocaine at 240 nm (6700 M^1 cm^1)(Xie et al., 1999) using a SpectraMax Plus 384 UV plate reader (Molecular Devices, Sunnyvale, Calif.) using SOFTmax Pro software (Version 3.1.2). The reaction was initiated by adding 100 μL of a 2× enzyme solution (100 mM phosphate buffer, pH 7.4 and 300 mM NaCl) to 100 μL of a 2× cocaine solution (50 μg/mL enzyme, 100 mM Phosphate Buffer, pH 7.4 and 300 mM NaCl). All assays were performed with 100 μM DTT unless indicated otherwise. Final cocaine concentrations were as follows: 125, 62.5, 31.25, 15.63, 7.81, 3.91, 1.95, and 0.977 μM. Vmax and Km values were calculated using Prism (GraphPad Software, San Diego). For stability measurements, wild type and mutant enzymes were diluted to 2× concentration and incubated at 37° C. for the times indicated. At the end of each time point, an aliquot was removed and kinetic behavior was observed as outlined above.
(§1) In vitro kinetic assays. […] Initial rates were then used to determine Michaelis-Menten parameters. To assess thermal stability, enzyme preparations were preincubated at 37° C. for various lengths of time, prior to measurement of residual activities (Table 1 and FIG. 23).

[2] = target: T1, CocE; assay: Effect of DTT on decay of CocE activity at 37° C.; assay type: biochemical, Rhodococcus sp. MB 1; conditions: DTT 10 mM
Description: as §1

[3] = target: T2, WT CocE (Rhodococcus sp., UniProt Q9L9D7)
T2 sequence (Q9L9D7 1-574): T1 sequence (Q9L9D7 1-574)
Description: Further characterization of the stability of wild type (WT) CocE and thermostable mutants was performed through circular dichroism, which detects small changes in protein conformation and structure. Analysis by repeated CD measurements at increasing temperatures allows analysis of the thermodynamics and melting temperature (TM) of the protein, so long as the melting is reversible (i.e. the protein resumes it's original conformation upon cooling). […] However CD is still of value in determining the temperature to unfolding.

[4] = target: T3, CocE mutant L169K (Rhodococcus sp., UniProt Q9L9D7, L169K); assay: Circular dichroism melting of L169K in the presence of phenylboronic acid; assay type: physicochemical, Rhodococcus sp. MB 1
T3 construct: 6xHis (C); made in house; host or cells: E. coli BL-21 Gold (DE3), pET-22b(+)
T3 sequence (Q9L9D7 1-574 L169K): T1 sequence (Q9L9D7 1-574) with L169K
Description: CD analysis of another CocE mutant, L169K, established a ˜65° C. melting temperature alone, and ˜85° C. melting temperature in the presence of phenylboronic acid (FIG. 18), i.e. phenylboronic acid conferred an additional 20° C. melting to the already high original melting temperature for L169K.

[5] = target: T4, CocE WT (Rhodococcus sp., UniProt Q9L9D7); assay: Inhibition of CocE WT aggregate formation, non-denaturing gel, 1 hour at 37° C.; parameters: species or system Rhodococcus sp. MB 1; conditions: read-out: 50% stabilization concentration
T4 construct: 6xHis (C); made in house; host or cells: E. coli BL-21 Gold (DE3), pET-22b(+)
T4 sequence (Q9L9D7 1-574): T1 sequence (Q9L9D7 1-574)
From the text: To further study CocE stabilization with small molecules, other inhibitors of the CocE cleavage reaction were considered.

| SMILES | Ki ([1]; cocaine hydrolysis, mixed competitive and non-competitive) [µM] | IC50 ([1]; wt-CocE) [µM] | effect on decay / τinact of wt-CocE [2] | melting temperature higher than the T172R mutant ([3]; WT CocE with compound) | melting temperature of WT CocE in presence of compound ([3]; excess benzoic acid, 5× molarity phenylboronic acid, 6031818) [°C] | additional melting conferred to L169K [4] [°C] | melting temperature of L169K in presence of compound [4] [°C] | EC50 [5] [µM] |
| --- | --- | --- | --- | --- | --- | --- | --- | --- |
| O[C@@H](CS)[C@@H](O)CS [DTT] | ~380 | ~390 | shortens; also recorded: accelerate the decay |  |  |  |  |  |
| OB(O)c1ccccc1 [Phenylboronic acid, phenylboronic acid] |  |  |  | more than 30 degrees | 73 | 20 | ~85 | ~0.2 |
